Measured values: patent US9676782B2, “Substituted pyrazolo[1,5-a]pyrazines as negative allosteric modulators of metabotropic glutamate receptor 3” (Vanderbilt University, priority 2014, dated 2017)
Read-outs that look alike come from different tables or passages of the source.

Key:
[1] = biological target: rat mGlu3 (Rattus norvegicus (Rat), UniProt P31422); experiment: mGlu3 Ca2+ flux assay; format: cell-based; settings: for remaining activity at 30 µM: amplitude of response at 30 μM test compound as % of maximal response to glutamate, read-out: rat mGlu3 Glu max (%); for mGlu3 Glu max: response at 30 μM compound as percentage of maximal glutamate response
rat mGlu3, sequence (P31422 23-879): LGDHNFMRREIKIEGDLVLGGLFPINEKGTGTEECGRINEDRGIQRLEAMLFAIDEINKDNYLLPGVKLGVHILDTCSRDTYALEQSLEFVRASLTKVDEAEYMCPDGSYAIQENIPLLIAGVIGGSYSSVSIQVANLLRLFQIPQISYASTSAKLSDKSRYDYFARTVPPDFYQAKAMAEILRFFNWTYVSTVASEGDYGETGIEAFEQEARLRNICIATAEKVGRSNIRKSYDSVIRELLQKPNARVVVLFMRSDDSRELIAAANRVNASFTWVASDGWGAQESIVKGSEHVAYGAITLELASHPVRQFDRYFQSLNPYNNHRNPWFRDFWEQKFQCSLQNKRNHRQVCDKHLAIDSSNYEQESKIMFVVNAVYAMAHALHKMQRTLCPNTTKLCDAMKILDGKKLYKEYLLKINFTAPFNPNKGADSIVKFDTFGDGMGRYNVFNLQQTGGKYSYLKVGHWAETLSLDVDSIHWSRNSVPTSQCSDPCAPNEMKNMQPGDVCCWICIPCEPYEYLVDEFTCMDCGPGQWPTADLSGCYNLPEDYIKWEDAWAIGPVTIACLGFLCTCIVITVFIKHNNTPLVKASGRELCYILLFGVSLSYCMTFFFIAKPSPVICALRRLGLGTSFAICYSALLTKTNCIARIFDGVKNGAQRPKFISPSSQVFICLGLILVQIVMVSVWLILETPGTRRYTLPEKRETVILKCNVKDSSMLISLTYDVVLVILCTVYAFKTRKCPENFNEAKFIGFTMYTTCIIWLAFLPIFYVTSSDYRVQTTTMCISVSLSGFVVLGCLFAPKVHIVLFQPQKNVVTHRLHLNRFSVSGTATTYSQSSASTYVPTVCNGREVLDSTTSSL
In short: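 This calcium mobilization assay used rat mGlu3 cells cultured overnight (37° C., 5% CO2) and read on the FDSS7000 after a 10 minute room-temperature incubation in 20 μL assay buffer. Each of 360 readings per well was divided by its initial value (F/F0). Potency came from fitting normalized responses against log concentration with an unconstrained 4 parameter logistic equation, weighting triplicate points equally.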

[2] = biological target: rat mGlu5 (Rattus norvegicus (Rat), UniProt P31424); experiment: mGlu5 Ca2+ flux assay; format: cell-based; settings: for Fold selectivity (mGlu3 vs. mGlu5): ratio of rat mGlu5 EC50 or IC50 to rat mGlu3 IC50; for Emax at 30 µM: PAM, amplitude of response at 30 μM test compound as % of maximal response to glutamate, read-out: rat mGlu5 Glu max (%); for mGlu5 Glu max: response at 30 μM compound as percentage of maximal glutamate response
rat mGlu5, sequence (P31424 21-1203): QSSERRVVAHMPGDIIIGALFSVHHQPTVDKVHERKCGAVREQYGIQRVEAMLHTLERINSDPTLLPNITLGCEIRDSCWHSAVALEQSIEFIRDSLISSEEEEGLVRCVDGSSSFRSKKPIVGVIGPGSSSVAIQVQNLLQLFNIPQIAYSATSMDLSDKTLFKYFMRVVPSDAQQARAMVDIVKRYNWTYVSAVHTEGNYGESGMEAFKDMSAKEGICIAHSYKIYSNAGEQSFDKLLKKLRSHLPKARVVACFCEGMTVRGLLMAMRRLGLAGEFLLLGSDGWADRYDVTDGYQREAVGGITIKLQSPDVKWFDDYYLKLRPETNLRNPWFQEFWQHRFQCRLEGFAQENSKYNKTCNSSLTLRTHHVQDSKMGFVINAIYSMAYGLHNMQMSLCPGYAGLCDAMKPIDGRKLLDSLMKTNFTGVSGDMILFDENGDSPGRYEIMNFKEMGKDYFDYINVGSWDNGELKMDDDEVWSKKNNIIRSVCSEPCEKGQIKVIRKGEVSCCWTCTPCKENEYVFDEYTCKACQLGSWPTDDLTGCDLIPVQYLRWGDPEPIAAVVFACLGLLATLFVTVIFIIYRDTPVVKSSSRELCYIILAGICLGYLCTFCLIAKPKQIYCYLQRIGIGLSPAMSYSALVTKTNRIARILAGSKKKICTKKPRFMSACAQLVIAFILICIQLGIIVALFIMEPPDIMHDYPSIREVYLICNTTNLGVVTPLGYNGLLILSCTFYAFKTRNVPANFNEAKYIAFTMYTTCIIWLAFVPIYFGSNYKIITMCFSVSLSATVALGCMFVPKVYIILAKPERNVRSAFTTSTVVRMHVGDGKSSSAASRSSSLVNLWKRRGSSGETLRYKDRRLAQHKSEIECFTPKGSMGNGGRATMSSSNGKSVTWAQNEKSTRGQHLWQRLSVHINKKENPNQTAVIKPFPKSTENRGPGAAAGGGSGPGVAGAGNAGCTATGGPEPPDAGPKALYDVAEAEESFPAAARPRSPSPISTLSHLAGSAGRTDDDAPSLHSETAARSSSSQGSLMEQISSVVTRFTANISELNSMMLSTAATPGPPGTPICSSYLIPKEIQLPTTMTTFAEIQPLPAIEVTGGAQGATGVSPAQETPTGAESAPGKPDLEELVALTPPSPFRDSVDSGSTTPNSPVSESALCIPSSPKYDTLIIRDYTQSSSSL
In short: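 Ca2+ flux read kinetically (FDSS7000) after overnight culture at 37° C/5% CO2 and a 5 min room-temperature buffer step following dye removal. Signals expressed per well as F/F0 and normalized to peak glutamate response; EC50 fitted by free 4-parameter logistic, three replicates per concentration equally weighted.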

[3] = system: Helpless (H) mice; settings: genetic model of depression; cited from earlier work
[4] = system: Aβ-induced neurodegeneration; settings: cited from earlier work
[5] = system: C57Bl6/J mice; settings: forced swim test; cited from earlier work
[6] = system: tumors injected into nude mice; settings: compared with controls; cited from earlier work
[7] = system: glioma stem cells (GSC); settings: in vitro; cited from earlier work
[8] = system: central mGlu2 and mGlu3 receptors; settings: in vivo; cited from earlier work
[9] = NAM potency, decrease of glutamate EC80 response, >30,000 = no measurable activity, >10,000 = no plateau, read-out: rat mGlu3 IC50
[10] = read-out: rat mGlu5 EC50 or IC50
[11] = Table 2 compounds with X = NH, read-out: mGlu3 IC50
[12] = Table 2 compounds with X = NH, read-out: mGlu5 EC50
[13] = Table 2 compounds with X = NMe, read-out: mGlu3 IC50
[14] = Table 2 compounds with X = NMe, read-out: mGlu5 EC50
[15] = Table 2 compounds with X = O, read-out: mGlu3 IC50
[16] = Table 2 compounds with X = O, read-out: mGlu5 EC50

Cc1ccnc(NCc2cc3n(n2)CCN(c2ccc(F)cc2)C3=O)c1 [Compound 161, 5-(4-fluorophenyl)-2-(((4-methylpyridin-2-yl)amino)methyl)-6,7-dihydropyrazolo[1,5-a]pyrazin-4(5H)-one]
IC50 [1, 9]: 3750 nM
remaining activity at 30 µM [1]: 1.14%
Fold selectivity (mGlu3 vs. mGlu5) [2]: >8.0
EC50 [2, 10]: > 30000 nM

O=C1c2cc(CNc3ncccc3C(F)(F)F)nn2CCN1c1ccc(F)cc1 [Compound 162, 5-(4-fluorophenyl)-2-(((3-(trifluoromethyl)pyridin-2-yl)amino)methyl)-6,7-dihydropyrazolo[1,5-a]pyrazin-4(5H)-one]
IC50 [1, 9]: 3840 nM
remaining activity at 30 µM [1]: 0.79%
Fold selectivity (mGlu3 vs. mGlu5) [2]: >7.8
EC50 [2, 10]: > 30000 nM

O=C1c2cc(CNc3cccc(Cl)n3)nn2CCN1c1ccc(F)cc1 [Compound 163, 2-(((6-chloropyridin-2-yl)amino)methyl)-5-(4-fluorophenyl)-6,7-dihydropyrazolo[1,5-a]pyrazin-4(5H)-one]
IC50 [1, 9]: 1180 nM
remaining activity at 30 µM [1]: 1.15%
Fold selectivity (mGlu3 vs. mGlu5) [2]: >25
EC50 [2, 10]: > 30000 nM

O=C1c2cc(CNc3cc(Cl)ccn3)nn2CCN1c1ccc(F)cc1 [Compound 164, 2-(((4-chloropyridin-2-yl)amino)methyl)-5-(4-fluorophenyl)-6,7-dihydropyrazolo[1,5-a]pyrazin-4(5H)-one]
IC50 [1, 9]: 1320 nM
remaining activity at 30 µM [1]: 2.99%
Emax at 30 µM [2]: 35.3%
Fold selectivity (mGlu3 vs. mGlu5) [2]: >7.5
EC50 [2, 10]: > 10000 nM

O=C1c2cc(CNc3ncccc3F)nn2CCN1c1ccc(F)cc1 [Compound 165, 5-(4-fluorophenyl)-2-(((3-fluoropyridin-2-yl)amino)methyl)-6,7-dihydropyrazolo[1,5-a]pyrazin-4(5H)-one]
IC50 [1, 9]: 2110 nM
remaining activity at 30 µM [1]: 1.66%
Fold selectivity (mGlu3 vs. mGlu5) [2]: >14
EC50 [2, 10]: > 30000 nM

O=C1c2cc(CNc3cccc(C(F)(F)F)n3)nn2CCN1c1ccc(F)cc1 [Compound 166, 5-(4-fluorophenyl)-2-(((6-(trifluoromethyl)pyridin-2-yl)amino)methyl)-6,7-dihydropyrazolo[1,5-a]pyrazin-4(5H)-one]
IC50 [1, 9]: 2350 nM
remaining activity at 30 µM [1]: 2.06%
Emax at 30 µM [2]: 50.6%
Fold selectivity (mGlu3 vs. mGlu5) [2]: >4.2
EC50 [2, 10]: > 10000 nM

CCCN(Cc1cc2n(n1)CCN(c1ccc(F)c(F)c1)C2=O)c1ccc(OC)cc1 [Compound 167, 5-(3,4-Difluorophenyl)-2-(((4-methoxyphenyl)(propyl)amino)methyl)-6,7-dihydropyrazolo[1,5-a]pyrazin-4(5H)-one]
remaining activity at 30 µM [1]: 1.32%
IC50 ([1]; read-out: rat mGlu3 IC50): 3720 nM
Fold selectivity (mGlu3 vs. mGlu5) [2]: 8.06
EC50 [2, 10]: > 30000 nM

CCN(Cc1cc2n(n1)CCN(c1ccc(F)c(F)c1)C2=O)c1ccc(OC)cc1 [Compound 168, 5-(3,4-difluorophenyl)-2-((ethyl(4-methoxyphenyl)amino)methyl)-6,7-dihydropyrazolo[1,5-a]pyrazin-4(5H)-one]
remaining activity at 30 µM [1]: 1.95%
IC50 ([1]; read-out: rat mGlu3 IC50): 2120 nM
Fold selectivity (mGlu3 vs. mGlu5) [2]: >14
EC50 [2, 10]: > 30000 nM

COc1ccc(NC(C)c2cc3n(n2)CCN(c2ccc(F)cc2)C3=O)cc1 (stereo not shown) [Compound 169, 5-(4-Fluorophenyl)-2-(1-((4-methoxyphenyl)amino)ethyl)-6,7-dihydropyrazolo[1,5-a]pyrazin-4(5H)-one]
IC50 [1, 9]: 7740 nM
remaining activity at 30 µM [1]: -6.64%
Fold selectivity (mGlu3 vs. mGlu5) [2]: >3.8
EC50 [2, 10]: > 30000 nM

CC(Nc1ccccc1)c1cc2n(n1)CCN(c1ccc(F)cc1)C2=O (stereo not shown) [Compound 170, 5-(4-fluorophenyl)-2-(1-(phenylamino)ethyl)-6,7-dihydropyrazolo[1,5-a]pyrazin-4(5H)-one]
IC50 [1, 9]: 2850 nM
remaining activity at 30 µM [1]: 0.67%
Fold selectivity (mGlu3 vs. mGlu5) [2]: >10
EC50 [2, 10]: > 30000 nM

CC(Nc1ccc(F)cc1)c1cc2n(n1)CCN(c1ccc(F)cc1)C2=O (stereo not shown) [Compound 171, 5-(4-fluorophenyl)-2-(1-((4-fluorophenyl)amino)ethyl)-6,7-dihydropyrazolo[1,5-a]pyrazin-4(5H)-one]
IC50 [1, 9]: 2150 nM
remaining activity at 30 µM [1]: 0.39%
Fold selectivity (mGlu3 vs. mGlu5) [2]: >13
EC50 [2, 10]: > 30000 nM

CC(Nc1ccc(Cl)cc1)c1cc2n(n1)CCN(c1ccc(F)cc1)C2=O (stereo not shown) [Compound 172, 2-(1-((4-chlorophenyl)amino)ethyl)-5-(4-fluorophenyl)-6,7-dihydropyrazolo[1,5-a]pyrazin-4(5H)-one]
IC50 [1, 9]: 1550 nM
remaining activity at 30 µM [1]: 1.29%
Fold selectivity (mGlu3 vs. mGlu5) [2]: >19
EC50 [2, 10]: > 30000 nM

N[C@](CC1c2ccccc2Oc2ccccc21)(C(=O)O)[C@H]1C[C@@H]1C(=O)O [LY341495]
activity in the tail suspension test [3]: active
effect on Aβ-induced neurodegeneration [4]: prevented
immobility time [5]: dose-dependently reduced immobility time
growth rate of tumors [6]: reduced
volume of tumors [6]: reduced
proliferation rates [7]: decreased in a time-dependent manner
proportion of cells in S phase [7]: decreased in a time-dependent manner
reversal of hypolocomotor effect of LY379268 [8]: achieved the same result

CCS(=O)(=O)N(Cc1cccnc1)c1cccc(-c2ccc(C#N)cc2)c1 [LY566332]
effect on Aβ-induced neurodegeneration [4]: amplified Aβ-induced neurodegeneration

Cc1cc(-c2cccc(C3=Nc4cc(C)c(C(F)(F)F)cc4NC(=O)C3)c2)cc(C)n1 [RO4491533]
activity in the tail suspension test [3]: active
immobility time [5]: dose-dependently reduced immobility time
reversal of hypolocomotor effect of LY379268 [8]: reversed the hypolocomotor effect

O=C1c2cc(CNc3ccccc3)nn2CCN1c1ccc(F)cc1 [drawing 29 X = NH]
IC50 [1, 11]: 1320 nM
mGlu3 Glu max ([1]; Table 2 compounds with X = NH): 2%
EC50 [2, 12]: 2040 nM
mGlu5 Glu max ([2]; Table 2 compounds with X = NH): 98%

CN(Cc1cc2n(n1)CCN(c1ccc(F)cc1)C2=O)c1ccccc1 [drawing 29 X = NMe]
IC50 [1, 13]: 1220 nM
mGlu3 Glu max ([1]; Table 2 compounds with X = NMe): 1%
EC50 [2, 14]: > 30000 nM

O=C1c2cc(COc3ccccc3)nn2CCN1c1ccc(F)cc1 [drawing 29 X = O, reference compound]
IC50 [1, 15]: 278 nM
mGlu3 Glu max ([1]; Table 2 compounds with X = O): 2%
EC50 [2, 16]: 44 nM
mGlu5 Glu max ([2]; Table 2 compounds with X = O): 79%

O=C1c2cc(CNc3ccccc3F)nn2CCN1c1ccc(F)cc1 [drawing 30 X = NH]
IC50 [1, 11]: 944 nM
mGlu3 Glu max ([1]; Table 2 compounds with X = NH): 2%
EC50 [2, 12]: 2470 nM
mGlu5 Glu max ([2]; Table 2 compounds with X = NH): 96%

CN(Cc1cc2n(n1)CCN(c1ccc(F)cc1)C2=O)c1ccccc1F [drawing 30 X = NMe]
IC50 [1, 13]: 876 nM
mGlu3 Glu max ([1]; Table 2 compounds with X = NMe): −1%
EC50 [2, 14]: > 30000 nM

O=C1c2cc(COc3ccccc3F)nn2CCN1c1ccc(F)cc1 [drawing 30 X = O, reference compound]
IC50 [1, 15]: 264 nM
mGlu3 Glu max ([1]; Table 2 compounds with X = O): 2%
EC50 [2, 16]: 147 nM
mGlu5 Glu max ([2]; Table 2 compounds with X = O): 61%

O=C1c2cc(CNc3cccc(F)c3)nn2CCN1c1ccc(F)cc1 [drawing 31 X = NH]
IC50 [1, 11]: 1040 nM
mGlu3 Glu max ([1]; Table 2 compounds with X = NH): 1%
EC50 [2, 12]: 2210 nM
mGlu5 Glu max ([2]; Table 2 compounds with X = NH): 99%

CN(Cc1cc2n(n1)CCN(c1ccc(F)cc1)C2=O)c1cccc(F)c1 [drawing 31 X = NMe]
IC50 [1, 13]: 594 nM
mGlu3 Glu max ([1]; Table 2 compounds with X = NMe): 2%
EC50 [2, 14]: 7760 nM
mGlu5 Glu max ([2]; Table 2 compounds with X = NMe): 110%

O=C1c2cc(COc3cccc(F)c3)nn2CCN1c1ccc(F)cc1 [drawing 31 X = O, reference compound]
IC50 [1, 15]: 132 nM
mGlu3 Glu max ([1]; Table 2 compounds with X = O): 1%
EC50 [2, 16]: 192 nM
mGlu5 Glu max ([2]; Table 2 compounds with X = O): 69%

CN(Cc1cc2n(n1)CCN(c1ccc(F)cc1)C2=O)c1ccc(F)cc1 [drawing 32 X = NMe]
IC50 [1, 13]: 467 nM
mGlu3 Glu max ([1]; Table 2 compounds with X = NMe): 1%
EC50 [2, 14]: > 30000 nM

O=C1c2cc(COc3ccc(F)cc3)nn2CCN1c1ccc(F)cc1 [drawing 32 X = O, reference compound]
IC50 [1, 15]: 108 nM
mGlu3 Glu max ([1]; Table 2 compounds with X = O): 1%
EC50 [2, 16]: 106 nM
mGlu5 Glu max ([2]; Table 2 compounds with X = O): 71%
